Assay results taken from paper PMC9709641 (Frontiers in Plant Science, 2022).

What was measured:
α-glucosidase [1] = assay: PNPG hydrolysis assay, absorbance at […] nm; assay type: biochemical
α-glucosidase [2] = assay: PNPG hydrolysis assay, absorbance at […] nm; maximum inhibition […] at […]; assay type: biochemical

Molecule | IC50 (α-glucosidase [1]) [µM] | IC50 (α-glucosidase [2]) [µM]
N#CC(O)c1ccc(O)cc1 (centres unmarked) [4-hydroxymandelonitrile] | 15.8 | –
eleutheroside E | – | 0.19
